Results on 1 molecule are retold here after patent US11844846B2, “Styrylbenzothiazole derivatives and uses in imaging methods” (Emory University, priority 2018, dated 2023).

“Also recorded” adds a separate entry of the source.

The target in one series is α-Syn PFFs (Homo sapiens, UniProt P37840). Put plainly: fluorescence spectroscopy titration with α-Syn PFFs. The settings on record: 0.08 μM fibrils, 5 μM small molecule; result in words. It is filed as binding. Here is the method: (§1) A fluorescent titration assay was conducted. The fluorescent emission intensities were determined with 0.08 μM of various fibrils in the presence of 5 μM of the small molecules.
(§2) To further investigate the selected compounds binding activities with α-Syn PFFs, fluorescence spectroscopy titrations were conducted to quantitatively measure compounds emission intensity when interacting with different concentrations of α-Syn PFFs. The UV spectrum of each compound was determined and selected for the optimal wavelength to conduct the fluorescence spectroscopic studies.

The next series has as its target T1, Aβ PFFs (Homo sapiens, UniProt P05067).
T1 construct: counter-screening with Tau and Aβ PFFs
Put plainly: fluorescence spectroscopy titration with Aβ PFFs. The format is binding. The settings on record: 0.08 μM fibrils, 5 μM small molecule; result in words. The protocol: as §1, §2

Another series deals with Tau PFFs (Homo sapiens, UniProt P10636). Put plainly: fluorescence spectroscopy titration with Tau PFFs. The format is binding. The conditions noted are these: 0.08 μM fibrils, 5 μM small molecule; result in words. Here is the method: as §1, §2
Chain of Tau PFFs (P10636 whole entry): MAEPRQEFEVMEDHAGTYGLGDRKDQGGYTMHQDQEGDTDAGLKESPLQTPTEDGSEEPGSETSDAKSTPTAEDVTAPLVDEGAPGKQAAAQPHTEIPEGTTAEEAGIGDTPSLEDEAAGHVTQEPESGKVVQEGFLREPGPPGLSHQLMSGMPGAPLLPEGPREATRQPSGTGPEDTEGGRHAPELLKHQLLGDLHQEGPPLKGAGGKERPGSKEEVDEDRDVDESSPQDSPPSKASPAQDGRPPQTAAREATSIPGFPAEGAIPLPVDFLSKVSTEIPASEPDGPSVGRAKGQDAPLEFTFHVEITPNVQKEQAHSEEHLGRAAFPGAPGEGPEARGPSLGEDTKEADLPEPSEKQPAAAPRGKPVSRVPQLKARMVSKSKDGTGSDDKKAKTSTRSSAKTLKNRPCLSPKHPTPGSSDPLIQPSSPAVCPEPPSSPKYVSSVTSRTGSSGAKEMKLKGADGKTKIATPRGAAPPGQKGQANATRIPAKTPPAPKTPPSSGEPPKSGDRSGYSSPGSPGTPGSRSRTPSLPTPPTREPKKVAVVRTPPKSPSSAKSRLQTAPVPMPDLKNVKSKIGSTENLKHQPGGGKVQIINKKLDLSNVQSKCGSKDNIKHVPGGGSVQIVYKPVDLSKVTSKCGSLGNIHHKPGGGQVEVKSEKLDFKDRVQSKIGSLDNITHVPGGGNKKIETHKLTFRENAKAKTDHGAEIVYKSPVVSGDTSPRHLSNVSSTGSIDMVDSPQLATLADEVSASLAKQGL
The next series deals with α-Syn aggregated neurons. Put plainly: neuronal α-Syn aggregation model, fluorescent microscopy. The conditions noted are these: primary cultured neurons, AAV-α-Syn plus α-Syn PFFs. The format is cell-based. From the text:
A series of derivatives were synthesized by including an amino group and a methyl group on benzothiazole to increase the brain permeability and fluorescent signals. The derivatives were subsequently subjected to α-Syn PFFs binding assay and counter-screening with Tau and Aβ PFFs. […] These compounds were screened on the neuronal α-Syn, Tau and Aβ aggregation model for the binding selectivity. Primary cultured neurons were infected with AAV-α-Syn, AAV-Tau FL for 7 days, then treated with α-Syn, Tau or Aβ PFFs. In a few days, the positive compounds were added in the primary neurons with indicated aggregates and analyzed under fluorescent microscopy.
Primary cultured neurons were infected with AAV-α-Syn, AAV-Tau FL or AAV-APP fragment virus for 7 days, and then treated with α-Syn, Tau or Aβ PFFs by following the described protocols (Volpicelli-Daley et al., 2014). In a few days, the positive compounds were added in the primary neurons with indicated aggregation.

The target in series [1] is T2, Lewy bodies in α-Syn A53T virus injected WT mice brain slices (Homo sapiens, UniProt P37840, A53T).
T2 construct: from tissue; host or cells: brain (substantia nigra) of wild-type mice injected with α-Syn A53T virus
Nature of the series: staining of mouse brain slices with Lewy bodies. The format is binding. The protocol: (§3) To further explore whether the positive compounds selectively bind to the Lewy bodies, α-Syn A53T patient-derived mutant virus injected WT mice brain slices were employed. These mice display extensive Lewy bodies in the SN.
(§4) To further explore whether the positive compounds selectively bind to the Lewy bodies, a α-Syn A53T patient-derived mutant virus was injected into WT mice brain slices. These mice display extensive Lewy bodies in the Substantial nigra (SN). Moreover, P301S mice expressed neurofibrillary tangles (NFT). The Lewy bodies were labeled with p-α-Syn S129 antibody and the positive aggregates were also labeled with the fluorescent signals from the small molecules. […] However, it was worth noting that almost none of the tested compounds were reactive with NFT.

In series [2] the target is T3, senile plaques in 5×FAD and 3×Tg mice brain sections (Homo sapiens, UniProt P05067).
T3 construct: Aβ-enriched senile plaques; from tissue; host or cells: brain sections of 5×FAD and 3×Tg mice
T3 sequence (P05067 672-713 limits assumed): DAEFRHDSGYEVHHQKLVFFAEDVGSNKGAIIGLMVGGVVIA
Put plainly: staining of mouse brain sections with senile plaques. The format is binding.

Series [3] relates to NFT in Tau P301S and 3×Tg mice brain sections. Nature of the series: staining of mouse brain sections with NFT. The format is binding. Here is the method:
as §3, §4

In series [4] the target is T4, LBs and LNs in DLB and MSA patient brains (Homo sapiens, UniProt P37840).
T4 construct: from tissue; host or cells: brain sections of DLB and MSA patients
Put plainly: ex vivo screening on DLB and MSA patient brain sections. The format is binding. From the text:
(§5) Ex vivo screening was extended into human DLB, MSA and AD patient samples. […] Since there are detectable α-Syn aggregates in AD patient brains, these compounds colocalized with p-S129 positive α-Syn inclusions.
(§6) The ex vivo screening was extended into human DLB, MSA and AD patient samples. Neurodegenerative disease of DLB (dementia with Lewy Bodies) and MSA belongs to synucleinopathies with well-defined Lewy bodies.

The subject of series [5] is senile plaques or NFT in AD. Nature of the series: ex vivo screening on AD patient brain sections. It is filed as binding, human.
From the text: as §5, §6

Series [6] is described as follows: F0502B in vivo PK study and B/P ratios. Set-up: species or system mouse. The conditions noted are these: mice, i.v. 5 mg/kg. Here is the method: To ensure that F0502B meets a PET tracer's kinetic criteria with rapid penetration into the brain and swift wash out, an in vivo PK study was performed in mice with i.v. injection of 5 mg/kg of F0502B.
The target in series [7] is T5, Lewy bodies positive with anti-p-α-Syn S129 in A53T PD mouse model (Homo sapiens, UniProt P37840, A53T).
T5 construct: from tissue; host or cells: brain (substantia nigra) of wild-type mice injected with α-Syn A53T virus
Put plainly: brain section staining after in vivo administration, Lewy bodies. The protocol:
(§7) […] In 2 h, the mice were sacrificed and stained the mouse brain sections with anti-Aβ, AT8 and p-S129 and ThS, respectively.
(§8) The p-S129 positive Lewy bodies in A53T PD mice were further confirmed by anti-aggregated α-Syn 5G2 antibody.

The test system of series [8] is senile plaques and NFT in 5×FAD, 3×Tg and Tau P301S mice. Put plainly: brain section staining after in vivo administration, senile plaques and NFT. Set-up: species or system mouse. Here is the method:
as §7, §8

For another series, the target named is α-Syn fibrils (Homo sapiens, UniProt P37840). Nature of the series: competitive binding assay with α-Syn fibrils and [18F]F0502B. The conditions noted are these: fixed concentrations of α-Syn fibrils and [18F]F0502B, increasing concentrations of cold compound.
Series [9] deals with T6, Lewy bodies in the brain sections from LBD patients (Homo sapiens, UniProt P37840).
T6 construct: from tissue; host or cells: brain sections of LBD patients
Nature of the series: autoradiography with [18F]F0502B, human brain slices. It is filed as binding. The settings on record: excessive cold compound. The protocol: [^18F]F0502B was evaluated in vitro and ex vivo binding assays to validate its specificity. α-Syn, Tau and Aβ PFFs were respectively incubated with increasing concentrations of [^18F]F0502B. The binding data were analyzed by curve fitting using nonlinear regression to obtain Kd and Bmax values. The Kd and a Bmax manifested the specific binding affinity with different fibrils. […] Autoradiography with [^18F]F0502B in human brain slices was performed. […] Together, these findings support that F0502B specifically and tightly binds to α-Syn fibrils in the Lewy bodies.

T1 sequence (P05067 672-713 limits assumed): as above

On to `Cc1cc2nc(/C=C/c3ccc(O)c(Br)c3)sc2cc1N(C)CCOCCF` [F0502B, (E)-2-bromo-4-(2-(6-((2-(2-fluoroethoxy)ethyl)(methyl)amino)-5-methylbenzo[d]thiazol-2-yl)vinyl)phenol], for which, at α-Syn PFFs, the “binding to α-Syn PFFs by fluorescent emission intensity” value is given as “specifically associated with α-Syn fibrils”. Also, the “binding to Aβ PFFs by fluorescent emission intensity” value on Aβ PFFs is “barely bound to Aβ or Tau fibrils”. Further, the “binding to Tau PFFs by fluorescent emission intensity” value at Tau PFFs was “barely bound to Aβ or Tau fibrils”. Besides, the “fluorescent signal in α-Syn aggregated neurons” value with α-Syn aggregated neurons was “specifically associated with α-Syn aggregates”. In [1], the “staining of Lewy bodies (p-α-Syn S129 positive)” value was “specifically associated with α-Syn aggregates”. Also, in series [2], the “staining of senile plaques” value is “not senile plaques or NFT from 5×FAD, 3×Tg and Tau P301S mice”. For the same molecule, the “staining of NFT” value in series [3] is “not senile plaques or NFT from 5×FAD, 3×Tg and Tau P301S mice”. Besides, the “staining of LBs and LNs” value in series [4] was “specifically associated with α-Syn aggregates”. Moreover, the “staining of senile plaques or NFT (Aβ, AT8 positive aggregates)” value in series [5] was “not senile plaques or NFT from 5×FAD, 3×Tg and Tau P301S mice or AD patients”. Besides, the C1 rate result in [6] is reported as “approximately 3.92 L/h/kg”. Besides, the decay in plasma result in [6] (result in words) is on record as “almost completely decayed at 8 h in the plasm”. For the same molecule, in series [6] (result in words, 5 mg/kg), the “brain entry and accumulation” value was “swiftly entered the brain and accumulated in the brain compared to the plasma; also recorded: preferentially enriched in the brain”. For the same molecule, the Kp at 0.5 h in series [6] (mouse, brain, iv, 0.5 h, read-out: B/P ratio) was determined as 4.16. Further, the Kp at 1 h in series [6] (mouse, brain, iv, 1 h, read-out: B/P ratio) is 13.4. Further, in [6] (mouse, brain, iv, 4 h, read-out: B/P ratio), the Kp at 4 h was found to be 26. The half-life in series [6] (mouse, plasma, iv, read-out: half-life t1/2 (converted)) was 69.6 min. Further, the “co-localisation with anti-p-S129 stained Lewy bodies” value in series [7] (F0502B 5 mg/kg i.v., mice sacrificed in 2 h, ThS stain on sections) is “colocalized with both F0502B and ThS”. Moreover, in series [7] (two hours after tail injection of 2 mg/kg of compound 13, A53T mice), the “staining of Lewy body by brain generated F0502B” value is “selectively stained Lewy body in A53T mice”. The “staining of senile plaques and NFT” value in [8] (F0502B 5 mg/kg i.v., 2 h, 5×FAD, 3×Tg, Tau P301S mice) was “does not co-stain Aβ or Tau aggregates”. Besides, the “staining of senile plaques or NFT by brain generated F0502B” value in [8] (two hours after tail injection of 2 mg/kg of compound 13, AD mouse models) was “not senile plaques or NFT in various AD mouse models”. In addition, on α-Syn fibrils, the “displacement of [18F]F0502B from α-Syn fibrils” value is “selectively stripped off by increasing concentrations of cold F0502B”. The “blocking of [18F]F0502B binding in brain sections” value in series [9] is “binding activities were blocked by excessive cold F0502B”.
